Patent US20230390356A1, “HAIR GROWTH AGENT” (ADJUVANT HOLDINGS CO., LTD., priority 2020, published 2023)

Key:
FGF-7 gene = FGF-7 gene expression in human dermal papilla cells by real-time PCR; assay type: cell-based; conditions: 24 hours, FIG. 4
Method: Testing and evaluation were carried out with maintenance and culture of human dermal papilla cells being performed in the same manner as at Exemplary Test 3, above.
As drugs for testing, drug solutions of the following respective concentrations (final concentrations) were prepared and used. • Comparative Example 1: 100 μM adenosine • Working Example 1: 1 μM palmitoyl dipeptide-5 diaminobutyloyl hydroxythreonine • Working Example 2: 10 μM palmitoyl dipeptide-5 diaminobutyloyl hydroxythreonine • Working Example 3: 300 μM palmitoyl dipeptide-5 diaminobutyloyl hydroxythreonine
A 24-well plate was seeded with human dermal papilla cells so as to obtain 6×10^3 thereof per well. […]
Following culture, total RNA was extracted from the respective wells and was recovered, and this was reverse-transcribed into cDNA. […] The GAPDH gene was used as an internal standard, the amount of FGF-7 gene expression being calculated relative to the negative control group.
A FastGene RNA Basic Kit (Catalog No. FG-80250; Nippon Genetics Co., Ltd. (Japan)) was used to recover total RNA from cells. […] Concentration of the recovered RNA was measured using a NanoDrop Lite (Catalog No. ND-LITE; Thermo Fisher Scientific K.K.), and this was stored at −80° C. until the following cDNA creation procedure. […]

[1] = test system: hair shafts (zigzag hairs) of skin samples transplanted in Balb/c nu/nu mice; experiment: Measurement of increase in hair diameter on hair shafts from Exemplary Test 1; assay type: in vivo
Method: Measurement of increase in hair diameter was carried out using hair shafts that had completed the second cycle at the foregoing Exemplary Test 1. Of the hair shafts that were collected, three zigzag hairs were used for measurement of increase in hair diameter. Three locations were selected in regions where diameter was large in the central portions thereof using a square […] on a side. For each of the selected regions, five different locations were further selected, and hair shaft diameter of the zigzag hairs thereat was measured to evaluate the degree to which increase in hair diameter had occurred.
Here, ** at FIG. 2 and TABLE 2 indicates p<0.01, i.e., that the results are significant.

[2] = test system: skin samples derived from dorsal body hair skin transplanted in Balb/c nu/nu mice; experiment: Evaluation of hair growth activity: drug applied on skin samples from mouse dorsal body hair skin grafted onto Balb/c nu/nu mice; assay type: in vivo
Method: C57BL/6N mice (male) and Balb/c nu/nu mice (female) were purchased from Japan SLC, Inc.(Japan) and bred, and were thereafter made available for the following testing. Note that the testing and breeding of animals complied with pertinent laws, regulations, ordinances, and guidelines, and was performed with the approval of the Experimental Ethics Review Board of the Institute of Physical and Chemical Research.
The following reagents were respectively prepared. • Placebo: 60% aqueous ethanol solution • Working Example 1: 0.05% solution of palmitoyl dipeptide-5 diaminobutyloyl hydroxythreonine
To collect dorsal body hair skin in the form of anagen stage VI skin 12 to 14 days following depilation. C57BL/6N mice of age 7 to 8 weeks were depilated at locations where dorsal body hair skin was intended to be collected, and were bred for 12 to 14 days. The depilated C57BL/6N mice were thereafter euthanized by cervical dislocation, following which a suitable amount of dorsal body hair skin was collected from the locations at which dorsal body hair skin was intended to be collected.
The collected skin was immersed in DMEM culture medium (hereinafter “DMEM 10”) which contained 10 mM HEPES, 10% fetal bovine serum, and 1% penicillin/streptomycin solution. The collected dorsal body hair skin was grasped with bent-nose curved tweezers and was treated by immersion for 10 seconds in a sterilizing solution. Sterilization treatment was performed by carrying out treatment with 7% povidone iodine solution two times, treatment with PBS (−) three times, and treatment with DMEM 10 two times, in this order, with fresh solutions respectively being used each time. Following sterilization treatment, these were immersed in clean DMEM 10.
Following sterilization treatment, the dorsal body hair skin was cut into pieces and formed into blocks. The transparent connective tissue which adhered to the cutaneous muscle layer of the skin was excised therefrom using curved scissors, and hair groups were cut into rectangular strips in parallel fashion with respect to the direction of the wave of the hair. At this time, these were cut into blocks such that there were 6 rows of hair follicles along the long axis, adjustment having been carried out so that there were 5 rows of hair follicles along the short axis.
The skin samples derived from dorsal body hair skin that were prepared in accordance with the foregoing were grafted onto Balb/c nu/nu mice of age 4 to 6 weeks.
More specifically, mice were anesthetized in the usual way using isoflurane gas. The dorsal area of the mice was then disinfected using 7% povidone iodine solution, following which the mice were made to assume a naturally recumbent posture. In addition, a Mani ophthalmic knife (Mani, Inc.; Japan) was used to pierce the skin at the dorsal area of the mice, the grafts which were formed extending from the epidermal layer of the skin to the subdermal layer. The skin samples derived from dorsal body hair skin were inserted into the grafts formed thereat in such fashion as to cause the hair groups to be directed toward the body surface side of the grafts. Skin sample transplanted depth was adjusted so as to cause the top portion of the hair group to be in a state such that it was exposed at the top portion of the graft. To protect the grafts, Nurseban (registered trademark) (Sunplanet Co., Ltd.; Japan) and surgical tape (3M Japan Limited; Japan) were then used as protective tape to cover the grafts at which the skin samples derived from dorsal body hair skin had been transplanted. The protective tape was removed 5 to 7 days following transplantation, and survival of the transplanted skin samples derived from dorsal body hair skin was determined by visual inspection or digital microscopy (Keyence Corporation: Japan), after which follow-up observation was carried out.
For the first hair cycle, 60% aqueous ethanol solution was applied thereto as placebo. […]

[3] = test system: human dermal papilla cells; experiment: Dermal papilla cell growth promotion (Cell Count Reagent SF absorbance); assay type: cell-based; conditions: 10.268375 to 328.588 μM
Method: Human dermal papilla cells (Catalog No. CA602t05a: derived from person: Toy obo Co., Ltd. (Japan)) were purchased, testing and evaluation being carried out with maintenance and culture of cells being performed as described in the protocol.
As drugs for testing, drug solutions consisting of culture medium for human dermal papilla cells containing palmitoyl dipeptide-5 diaminobutyloyl hydroxythreonine in the following respective concentrations (final concentrations) were prepared, and these were used. • Working Example 1: 10.268375 μM • Working Example 2: 20.53675 μM • Working Example 3: 41.0735 μM • Working Example 4: 82.147 μM • Working Example 5: 164.294 μM • Working Example 6: 328.588 μM
A 96-well plate was seeded with human dermal papilla cells so as to obtain 1×10^3 thereof per well. […] After this had been added thereto, absorbance (measurement wavelength 450 nm; reference wavelength 620 nm) of the culture supernatant was measured. Based on these values, the cell growth rates at the respective wells were calculated, at which time the cell growth rate of the control group at which nothing had been added was taken to be 100%.

[4] = 0.05% solution applied topically to transplanted skin samples, second hair cycle
[5] = 0.05% solution, second hair cycle vs placebo applied in first hair cycle

## palmitoyl dipeptide-5 diaminobutyloyl hydroxythreonine
FGF-7 gene; 1 μM and 10 μM
  Amount of expression of FGF-7 gene as compared with control group (in words): increase in the amount of expression of the FGF-7 gene
FGF-7 gene; increased amount added
  Amount of expression of FGF-7 gene compared with 100 μM adenosine (in words): greater than that which was produced as a result of action of adenosine
[1]; 0.05% solution
  Hair diameter as compared with 60% aqueous ethanol control (in words): clear increase in hair diameter
[1]; second hair cycle vs placebo applied in first hair cycle
  Hair shaft diameter, percent increase: 137%
[1]; zigzag hairs after second hair cycle, 0.05% solution, p<0.01
  Hair shaft diameter: 22.0 ± 1.6 ** μm
[2]; [4]
  Hair shaft elongation rate: 0.40 ± 0.08 mm/day
  Maximum hair shaft length: 5.1 ± 0.3 mm
[2]; [5]
  Hair shaft elongation rate, percent change relative to reference data: 110.45%
  Maximum hair shaft length, percent change relative to reference data: 103.27%
[2]; solution containing 0.05%
  Hair growth activity (in words): exhibit hair growth activity
  Hair shaft elongation rate as compared with reference data (in words): significant improvement
  Maximum hair shaft length as compared with reference data (in words): significant improvement
[3]; 24, 48 or 72 hours, FIG. 3
  Cell growth rate as compared with control group at which nothing had been added (in words): increase in cell growth rate
[3]; within concentration domain tested
  Concentration dependence of cell growth rate (in words): increased in concentration-dependent fashion
